Among the data in US20250195521A1 (Revolution Medicines, Inc., priority 2020, published 2025) are IC50 values, retold here.

Molecules are shown by their SMILES. Where two headings read alike, the source gives them in different places. A value given as a limit tells only on which side of the number the result lay.

The subject of test [1] is Capan-1 cells (K-Ras G12V). Briefly: CellTiter-Glo cell viability, Capan-1. The class given is cell-based, human. The conditions noted are these: Homo sapiens, CAPAN-1, 120 h, K-Ras G12V, 5-day treatment; read-out: Capan-1 Cell Viability IC50. Summed up:
(§1)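 Viability is read as luminescence after five days of compound exposure, with plates first equilibrated to room temperature for roughly 30 minutes. Each signal is expressed as a percentage of the mean DMSO control, and curves are fitted by four-parameter logistic regression.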

The target in test [2] is K-Ras G12C(GMP-PNP) binding to BRAF RBD (Homo sapiens (Human), UniProt P01116+P62937, G12C). Briefly: Disruption of BRAF RBD interaction with K-Ras (FRET / MOA assay), K-Ras G12C. The class given is biochemical. In outline: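 TR-FRET readout: after 3 h compound incubation at 25 °C, anti-His Eu and anti-GST allophycocyanin (10 and 50 nM final) added for a further 1.5 h. Dilution series was 10-point, 3-fold, top 30 μM final. Ras–cyclophilin A ternary complex formation blocks the BRAF RBD interaction; IC50 derived from reduced FRET ratio relative to DMSO.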

The target of test [3] is KRAS WT (Homo sapiens (Human), UniProt P01116+P62937). Briefly: Ras-Raf disruption/FRET/MOA assay (BRAF RBD, Cyclophilin A). Conditions: read-out: KRAS WT FRET data IC50. Format: biochemical. In outline: (§2)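 TR-FRET readout: anti-His Eu-W1024 (10 nM) and anti-GST allophycocyanin (50 nM) added after 3 h, 25° C compound incubation, then 1.5 h more. Decrease in FRET ratio versus DMSO wells marks Ras:RAF disruption; IC50 reported.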

The target of test [4] is KRAS G12V (Homo sapiens (Human), UniProt P01116+P62937, G12V). The test is described as above. Conditions: read-out: KRAS G12V FRET IC50. Format: biochemical. Summed up: as §2
For test [5], the target named is NRAS G12C (Homo sapiens (Human), UniProt P01111+P62937, G12C). The description is as above. The class given is biochemical. Conditions: read-out: NRAS G12C FRET data IC50. In outline:
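TR-FRET read after 1.5 h with 10 nM anti-His Eu-W1024 and 50 nM anti-GST APC, following 3 h at 25 °C of GMPPNP-loaded His6-Ras (12.5 nM), GST-BRAF RBD (50 nM) and Cyclophilin A (25 μM) with compound from 30 μM final, 10 points, 3-fold. IC50 reported; pH 7.3 HEPES, 100 mM NaCl.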

Test [6] concerns the target KRAS G13D (Homo sapiens (Human), UniProt P01116+P62937, G13D). The test is described as above. Format: biochemical. Conditions: read-out: KRAS G13D FRET data IC50. In outline:
as §2

The target of test [7] is KRAS G12S (Homo sapiens (Human), UniProt P01116+P62937, G12S). The test is described as above. Format: biochemical. Conditions: read-out: KRAS G12S FRET IC50. Summed up:
as §2

For test [8], the target named is KRAS G13C (Homo sapiens (Human), UniProt P01116+P62937, G13C). Described as above. The class given is biochemical. Conditions: read-out: KRAS G13C FRET IC50. In outline:
as §2

In test [9] the target is KRAS G12D (Homo sapiens (Human), UniProt P01116+P62937, G12D). Described as above. The class given is biochemical. Conditions: read-out: KRAS G12D FRET IC50. In outline: as §2
For test [10], the target named is KRAS G12C (Homo sapiens (Human), UniProt P01116+P62937, G12C). The test is described as above. The conditions noted are these: read-out: KRAS G12C FRET IC50. The class given is biochemical. Summed up:
as §2

Test [11] relates to NCI-H358 cells (K-Ras G12C). Briefly: CellTiter-Glo cell viability, NCI-H358. Format: cell-based, human. Conditions: Homo sapiens, NCI-H358, 120 h, K-Ras G12C, 5-day treatment; read-out: H358 Cell Viability IC50. In outline:
as §1

NRAS G12C, sequence (P01111 whole entry G12C): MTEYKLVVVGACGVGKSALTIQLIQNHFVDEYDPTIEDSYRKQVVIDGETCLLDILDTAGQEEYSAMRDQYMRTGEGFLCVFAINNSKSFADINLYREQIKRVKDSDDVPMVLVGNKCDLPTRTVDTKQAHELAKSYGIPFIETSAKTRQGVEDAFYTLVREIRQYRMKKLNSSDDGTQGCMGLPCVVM
NRAS G12C, sequence (P62937 whole entry): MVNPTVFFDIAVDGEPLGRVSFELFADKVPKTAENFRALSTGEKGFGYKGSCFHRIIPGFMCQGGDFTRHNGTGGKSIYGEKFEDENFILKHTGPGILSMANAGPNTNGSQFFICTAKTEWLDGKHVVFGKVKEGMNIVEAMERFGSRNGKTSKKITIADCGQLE
K-Ras G12C(GMP-PNP) binding to BRAF RBD, sequence (P01116 other isoform, or with tags, fused parts or gaps G12C): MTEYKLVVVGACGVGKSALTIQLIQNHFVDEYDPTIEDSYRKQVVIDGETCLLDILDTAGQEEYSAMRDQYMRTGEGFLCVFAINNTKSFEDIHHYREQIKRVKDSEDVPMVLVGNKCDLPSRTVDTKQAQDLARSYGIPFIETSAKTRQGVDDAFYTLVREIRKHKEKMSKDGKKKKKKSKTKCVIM
K-Ras G12C(GMP-PNP) binding to BRAF RBD, sequence (P62937 whole entry): as the sequence (P62937 whole entry) above
KRAS G12C, sequence (P01116-2 other isoform, or with tags, fused parts or gaps G12C): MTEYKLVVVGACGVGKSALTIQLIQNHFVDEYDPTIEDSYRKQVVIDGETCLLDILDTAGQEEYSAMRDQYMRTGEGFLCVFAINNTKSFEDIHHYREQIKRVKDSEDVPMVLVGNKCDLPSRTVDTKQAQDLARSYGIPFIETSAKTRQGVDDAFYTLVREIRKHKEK
KRAS G12C, sequence (P62937 whole entry): as the sequence (P62937 whole entry) above
KRAS G12D, sequence (P01116 other isoform, or with tags, fused parts or gaps G12D): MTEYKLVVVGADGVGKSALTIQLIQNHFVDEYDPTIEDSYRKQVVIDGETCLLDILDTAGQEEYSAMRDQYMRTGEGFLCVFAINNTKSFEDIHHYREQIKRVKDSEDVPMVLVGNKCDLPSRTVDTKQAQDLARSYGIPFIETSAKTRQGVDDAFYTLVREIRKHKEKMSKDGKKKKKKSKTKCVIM
KRAS G12D, sequence (P62937 whole entry): as the sequence (P62937 whole entry) above
KRAS G12V, sequence (P01116 other isoform, or with tags, fused parts or gaps G12V): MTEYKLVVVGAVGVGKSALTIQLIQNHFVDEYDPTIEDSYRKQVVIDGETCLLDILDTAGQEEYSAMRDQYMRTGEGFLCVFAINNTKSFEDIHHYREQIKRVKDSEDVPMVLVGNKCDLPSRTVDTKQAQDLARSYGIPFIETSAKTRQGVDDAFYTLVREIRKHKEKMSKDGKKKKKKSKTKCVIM
KRAS G12V, sequence (P62937 whole entry): as the sequence (P62937 whole entry) above
KRAS G13C, sequence (P01116 other isoform, or with tags, fused parts or gaps G13C): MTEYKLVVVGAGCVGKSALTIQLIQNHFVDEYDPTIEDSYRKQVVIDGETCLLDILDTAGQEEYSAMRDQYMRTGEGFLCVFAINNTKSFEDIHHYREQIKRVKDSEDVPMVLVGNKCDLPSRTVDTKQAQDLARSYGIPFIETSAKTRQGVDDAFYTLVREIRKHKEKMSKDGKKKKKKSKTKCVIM
KRAS G13C, sequence (P62937 whole entry): as the sequence (P62937 whole entry) above
KRAS G12S, sequence (P01116 other isoform, or with tags, fused parts or gaps G12S): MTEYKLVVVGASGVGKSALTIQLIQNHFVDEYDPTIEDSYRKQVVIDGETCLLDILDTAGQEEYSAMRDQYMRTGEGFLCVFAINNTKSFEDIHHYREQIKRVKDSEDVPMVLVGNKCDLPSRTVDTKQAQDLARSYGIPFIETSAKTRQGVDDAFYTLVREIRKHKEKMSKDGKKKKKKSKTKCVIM
KRAS G12S, sequence (P62937 whole entry): as the sequence (P62937 whole entry) above
KRAS WT, sequence (P01116 other isoform, or with tags, fused parts or gaps): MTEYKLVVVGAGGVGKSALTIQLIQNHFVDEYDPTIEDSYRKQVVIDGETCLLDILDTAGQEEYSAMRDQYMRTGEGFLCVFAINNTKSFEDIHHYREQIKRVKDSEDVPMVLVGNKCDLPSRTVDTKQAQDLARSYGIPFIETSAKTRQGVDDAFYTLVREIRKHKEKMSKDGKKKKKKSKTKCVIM
KRAS WT, sequence (P62937 whole entry): as the sequence (P62937 whole entry) above
KRAS G13D, sequence (P01116 other isoform, or with tags, fused parts or gaps G13D): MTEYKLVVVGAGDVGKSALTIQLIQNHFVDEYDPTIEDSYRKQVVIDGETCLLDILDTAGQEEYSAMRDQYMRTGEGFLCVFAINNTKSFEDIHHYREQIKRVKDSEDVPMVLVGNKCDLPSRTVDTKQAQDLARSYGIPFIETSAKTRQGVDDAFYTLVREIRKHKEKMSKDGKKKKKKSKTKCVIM
KRAS G13D, sequence (P62937 whole entry): as the sequence (P62937 whole entry) above

For `CCn1c(-c2cccnc2[C@H](C)OC)c2c3cc(ccc31)-c1cc(cc3nc[nH]c13)C[C@H](NC(=O)[C@H](C(C)C)N(C)C(C)=O)C(=O)N1CCC[C@H](N1)C(=O)OCC(C)(C)C2` [Compound A153], the IC50 in test [1] was greater than 10000 nM; in [2] (read-out: KRAS G12C FRET IC50), 10 to 100 nM; in test [3], greater than 10000 nM; in test [4] it was greater than 10000 nM; in [5], greater than 10000 nM; in test [6], greater than 10000 nM. The half-inhibitory concentration (IC50) in test [7], in test [8] and in test [9] was greater than 10000 nM in each case.

For `CCn1c(-c2cccnc2[C@H](C)OC)c2c3cc(ccc31)-c1cc(cc(S(C)(=O)=O)c1)C[C@H](NC(=O)[C@H](C(C)C)N(C)C(C)=O)C(=O)N1CCC[C@H](N1)C(=O)OCC(C)(C)C2` [Compound A154], the IC50 in test [1] is greater than 10000 nM; in test [2] (read-out: KRAS G12C FRET IC50) it was 10 to 100 nM; in [3], greater than 10000 nM; in test [4], greater than 10000 nM; in test [5], greater than 10000 nM; in test [6], greater than 10000 nM. Further, the IC50 in test [7], in test [8] and in test [9] was greater than 10000 nM throughout.

For the molecule `CCn1c(-c2cccnc2[C@H](C)OC)c2c3cc(ccc31)-c1cc(O)cc(c1)C[C@H](NC(=O)[C@H](C(C)C)N(C)C(=O)[C@H]1OCC[C@H]1c1ccccc1)C(=O)N1CCC[C@H](N1)C(=O)OCC(C)(C)C2` [Compound A425], the half-inhibitory concentration (IC50) in test [2] (read-out: KRAS G12C FRET IC50) is less than 10 nM; in test [3], 1000 to 10000 nM; in test [4] it was 100 to 1000 nM; in test [10], 100 to 1000 nM; in test [5], 1000 to 10000 nM; in test [6], 1000 to 10000 nM. The results for the IC50 in [7], in test [8] and in test [9] were 1000 to 10000 nM, 100 to 1000 nM and 1000 to 10000 nM, respectively.

Take `CCn1c(-c2cccnc2[C@H](C)OC)c2c3cc(ccc31)-c1cc(O)cc(c1)C[C@H](NC(=O)[C@H](C(C)C)N(C)C(=O)C1CNCCNC1)C(=O)N1CCC[C@H](N1)C(=O)OCC(C)(C)C2` [Compound A432]: the IC50 fell in the range of 10 to 100 nM in test [2] (read-out: KRAS G12C FRET IC50); 100 to 1000 nM in test [3]; 1000 to 10000 nM in [4]; 10 to 100 nM in test [10]; 10 to 100 nM in [5]; 10 to 100 nM in test [6]. The figures for the IC50 in test [7], in test [8] and in test [9] were 100 to 1000 nM, 10 to 100 nM and 100 to 1000 nM, respectively.

`CCn1c(-c2cc(N3CCN(C)CC3)cnc2[C@H](C)OC)c2c3cc(ccc31)-c1csc(n1)C[C@H](NC(=O)[C@H](C(C)C)N(C)C(=O)N1CC(OC)C1)C(=O)N1CCC[C@H](N1)C(=O)OCC(C)(C)C2` [Compound A466]: the IC50 in [2] (KRAS G12C FRET IC50) lay in the range of 10 to 100 nM; in test [3], 100 to 1000 nM; in test [4], 100 to 1000 nM; in [10], 10 to 100 nM; in test [5], 10 to 100 nM; in test [6], 100 to 1000 nM. Further, the IC50 in test [7], in test [8] and in test [9] was 100 to 1000 nM in each case.

In the case of `CCn1c(-c2cccnc2[C@H](C)OC)c2c3cc(ccc31)-c1csc(n1)C[C@H](NC(=O)[C@H](C(C)C)N(C)C(=O)N1CCC[C@H]1c1ccccc1)C(=O)N1CCC[C@H](N1)C(=O)OCC(C)(C)C2` [Compound A599], the IC50 in test [11], in test [1], in [3], in test [4], in test [10] and in [5] was 1000 to 10000 nM throughout. Moreover, the IC50 in test [6], in test [7], in [8] and in [9] was 1000 to 10000 nM each time.

Consider `CCn1c(-c2cccnc2[C@H](C)OC)c2c3cc(ccc31)-c1cc(O)cc(c1)C[C@H](NC(=O)[C@H](C(C)C)N(C)C(=O)[C@]1(F)CCN(C(=O)OC)C1)C(=O)N1CCC[C@H](N1)C(=O)OCC(C)(C)C2` [Compound A616], for which the IC50 in [11] lay within 100 to 1000 nM; in test [1], 100 to 1000 nM; in [3] it was 10 to 100 nM; in test [4] it was 100 to 1000 nM; in test [10] it was 10 to 100 nM; in [5] it was 10 to 100 nM. Also, the IC50 was 100 to 1000 nM in test [6], 100 to 1000 nM in test [7], 10 to 100 nM in test [8] and 100 to 1000 nM in test [9].
